Source: ChEMBL document CHEMBL1201862, “PubChem BioAssay data set” (2004)
The source made the active and inactive calls.

Columns and labels:
[1] = Counterscreen for inhibitors of Trypanosoma brucei methionyl tRNA synthetase (MetRS): Luminescence-based cell-based high throughput dose response assay to identify compounds that are cytotoxic to Jurkat human T lymphocyte cells.; assay type: functional
[2] = biological target: T1, Methionyl-tRNA synthetase, putative (Trypanosoma brucei brucei, UniProt Q38C91); assay type: functional, Trypanosoma brucei brucei strain 927/4 GUTat10.1
T1 sequence (Q38C91 whole entry): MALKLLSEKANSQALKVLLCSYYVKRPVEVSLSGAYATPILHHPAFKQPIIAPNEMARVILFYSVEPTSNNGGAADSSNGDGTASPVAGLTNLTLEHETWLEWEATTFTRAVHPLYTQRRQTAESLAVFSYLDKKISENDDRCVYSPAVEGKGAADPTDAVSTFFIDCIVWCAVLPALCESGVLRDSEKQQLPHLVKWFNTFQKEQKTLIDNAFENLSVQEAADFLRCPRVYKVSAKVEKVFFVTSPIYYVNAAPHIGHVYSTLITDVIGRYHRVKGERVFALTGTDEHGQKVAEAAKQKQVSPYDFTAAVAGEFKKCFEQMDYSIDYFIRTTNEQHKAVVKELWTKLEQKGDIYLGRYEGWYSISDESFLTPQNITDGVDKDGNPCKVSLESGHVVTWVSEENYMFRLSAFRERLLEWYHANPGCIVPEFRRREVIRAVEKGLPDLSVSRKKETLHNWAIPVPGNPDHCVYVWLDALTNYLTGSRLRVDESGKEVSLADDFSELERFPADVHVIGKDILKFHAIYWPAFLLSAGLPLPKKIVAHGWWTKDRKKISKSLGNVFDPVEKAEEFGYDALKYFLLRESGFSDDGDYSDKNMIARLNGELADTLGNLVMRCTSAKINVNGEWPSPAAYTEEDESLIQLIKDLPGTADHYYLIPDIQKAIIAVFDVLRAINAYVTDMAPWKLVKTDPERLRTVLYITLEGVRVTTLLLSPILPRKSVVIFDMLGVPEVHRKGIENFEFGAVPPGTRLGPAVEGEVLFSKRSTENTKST

[3] = biological target: T1, Methionyl-tRNA synthetase, putative; assay type: functional, Trypanosoma brucei brucei strain 927/4 GUTat10.1; remark: listed apart in the source
[4] = biological target: T2, Oxysterols receptor LXR-beta (Homo sapiens, UniProt P55055); assay type: functional, cell-based;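 also: agonist activity at LXR measured by a cell-based luminescence readout across a dose range, run as a counterscreen for daf-12 agonists; HEK293 cells with Gal4-LXR fusion and GAL4-driven luciferase reporter; potency for activation of Gal4-LXR reporter so compounds are agonists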
T2 sequence (P55055 whole entry): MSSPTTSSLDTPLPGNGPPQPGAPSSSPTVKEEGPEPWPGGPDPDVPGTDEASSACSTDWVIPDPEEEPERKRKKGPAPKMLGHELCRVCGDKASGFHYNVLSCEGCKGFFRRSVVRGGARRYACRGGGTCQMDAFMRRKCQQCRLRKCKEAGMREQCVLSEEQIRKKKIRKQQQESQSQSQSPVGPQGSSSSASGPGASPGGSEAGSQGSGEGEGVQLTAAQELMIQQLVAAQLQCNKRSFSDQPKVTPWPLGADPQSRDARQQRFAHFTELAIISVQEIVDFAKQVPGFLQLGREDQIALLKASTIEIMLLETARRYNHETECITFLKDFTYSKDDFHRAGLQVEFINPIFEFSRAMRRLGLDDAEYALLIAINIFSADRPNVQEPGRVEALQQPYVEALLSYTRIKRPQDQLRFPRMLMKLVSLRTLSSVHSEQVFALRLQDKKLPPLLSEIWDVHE

[5] = viability loss in MITF-independent A375 cells – cell-based, CellTiter-Glo luminescence, dry powder, set 2, counter-screen for MITF inhibitor project, dose response (AID 624489); assay type: functional; details: A-375;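 also: actives are compounds lowering A375 viability meaning general cytotoxicity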
[6] = cytotoxicity in MITF-independent A375 cells – cell-based, CellTiter-Glo luminescence, dry powder, set 4, counter-screen for MITF inhibitor project, dose response (AID 624364); assay type: functional; details: A-375;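 also: A375 melanoma cells are MITF independent so this is a counter screen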
[7] = biological target: Cytochrome P450 2C9 (Homo sapiens, UniProt P11712)
[8] = cells
[9] = blockers of HIV-1 envelope-mediated cell-cell fusion – cherry-pick, dose response (AID 652057); assay type: functional, cell-based
[10] = test system: INS1; assay: INS-1E survival protection against cytokine death – cell-based, luminescence, retest, dose response (AID 449756); assay type: functional; details: Rattus norvegicus;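 also: cell death triggered by IL-1 beta plus TNF-alpha plus IFN-gamma mixture; protective hits raise ATP signal compared with cytokine alone wells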
[11] = viability loss in CEM21 cells – cell-based, CellTiter-Glo luminescence, cherry-picked, cytotoxicity control for viral fusion inhibitor project, dose response (AID 652042); assay type: functional;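 also: potency for signal decrease meaning cytotoxicity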
[12] = off-target signal loss in HeLa-CEM21 co-culture – HeLa F-luc CTL cells, cherry-picked, counter-screen for HIV-1 Env fusion inhibitor project, dose response (AID 652040); assay type: functional, cell-based;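 also: potency for signal decrease marking cytotoxic or nonspecific inhibition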
[13] = HIV-1 AD8 envelope cell-cell fusion blockers – cherry-pick, dose response (AID 652062); assay type: functional, cell-based;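 also: luciferase signal from cell-cell fusion driven by HIV-1 clade B AD8 Env; potency is for inhibitors of fusion seen as a drop in luminescence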
[14] = blockers of HIV-1 ZM109 envelope-driven cell-cell fusion – HeLa effector, CEM target cells, luciferase, cherry-pick, dose response (AID 652058); assay type: functional, cell-based;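 also: luciferase signal from HIV-1 Env mediated cell-cell fusion of effector and target cells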
[15] = biological target: Major prion protein (Homo sapiens, UniProt P04156); assay type: functional, cell-based
[16] = biological target: T3, Histone-lysine N-methyltransferase NSD2 (Homo sapiens, UniProt O96028); assay type: biochemical
T3 sequence (O96028 whole entry): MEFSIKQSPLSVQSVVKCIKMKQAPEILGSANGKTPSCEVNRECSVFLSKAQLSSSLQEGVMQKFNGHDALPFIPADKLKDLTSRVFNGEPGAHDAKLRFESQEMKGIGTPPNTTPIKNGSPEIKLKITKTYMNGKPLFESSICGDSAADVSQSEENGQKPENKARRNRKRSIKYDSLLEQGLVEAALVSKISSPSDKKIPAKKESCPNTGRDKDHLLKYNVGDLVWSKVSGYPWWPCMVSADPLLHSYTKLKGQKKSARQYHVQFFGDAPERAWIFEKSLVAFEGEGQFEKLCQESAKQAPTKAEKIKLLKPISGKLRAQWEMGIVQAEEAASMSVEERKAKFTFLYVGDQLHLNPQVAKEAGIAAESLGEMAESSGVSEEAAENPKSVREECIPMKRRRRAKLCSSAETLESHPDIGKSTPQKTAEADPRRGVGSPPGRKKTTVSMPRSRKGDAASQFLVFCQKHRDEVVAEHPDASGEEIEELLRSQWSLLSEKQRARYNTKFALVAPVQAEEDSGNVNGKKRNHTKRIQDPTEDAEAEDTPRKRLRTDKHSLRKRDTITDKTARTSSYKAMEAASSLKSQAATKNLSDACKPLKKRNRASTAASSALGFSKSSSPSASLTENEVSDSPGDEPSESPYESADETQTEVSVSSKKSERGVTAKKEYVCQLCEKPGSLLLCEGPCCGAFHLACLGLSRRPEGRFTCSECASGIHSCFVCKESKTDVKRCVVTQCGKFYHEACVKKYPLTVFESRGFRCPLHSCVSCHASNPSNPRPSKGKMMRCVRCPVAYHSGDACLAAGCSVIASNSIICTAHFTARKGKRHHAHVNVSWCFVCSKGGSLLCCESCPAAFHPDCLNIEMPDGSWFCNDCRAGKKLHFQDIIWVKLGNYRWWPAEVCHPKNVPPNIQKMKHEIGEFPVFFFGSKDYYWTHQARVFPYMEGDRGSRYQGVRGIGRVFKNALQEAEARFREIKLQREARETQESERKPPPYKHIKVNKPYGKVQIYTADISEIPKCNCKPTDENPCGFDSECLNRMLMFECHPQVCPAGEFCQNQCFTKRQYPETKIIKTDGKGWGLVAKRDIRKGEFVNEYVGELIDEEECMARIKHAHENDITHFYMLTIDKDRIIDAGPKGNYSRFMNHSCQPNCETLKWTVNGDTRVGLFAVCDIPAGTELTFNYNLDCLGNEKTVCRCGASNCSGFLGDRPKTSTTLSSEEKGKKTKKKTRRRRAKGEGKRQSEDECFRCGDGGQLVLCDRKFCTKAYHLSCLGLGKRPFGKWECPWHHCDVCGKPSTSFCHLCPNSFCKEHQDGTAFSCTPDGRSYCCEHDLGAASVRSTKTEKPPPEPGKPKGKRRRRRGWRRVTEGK

[17] = biological target: T4, Protein RecA (Mycobacterium tuberculosis, UniProt P9WHJ3); assay: Fluorescence Cell-Free Homogeneous Dose Retest to Identify Inhibitors of RecA-Intein Splicing Activity. [Related pubchem assays (depositor defined):AID2097, AID2223, AID489010, AID492950]; assay type: functional
T4 sequence (P9WHJ3 whole entry): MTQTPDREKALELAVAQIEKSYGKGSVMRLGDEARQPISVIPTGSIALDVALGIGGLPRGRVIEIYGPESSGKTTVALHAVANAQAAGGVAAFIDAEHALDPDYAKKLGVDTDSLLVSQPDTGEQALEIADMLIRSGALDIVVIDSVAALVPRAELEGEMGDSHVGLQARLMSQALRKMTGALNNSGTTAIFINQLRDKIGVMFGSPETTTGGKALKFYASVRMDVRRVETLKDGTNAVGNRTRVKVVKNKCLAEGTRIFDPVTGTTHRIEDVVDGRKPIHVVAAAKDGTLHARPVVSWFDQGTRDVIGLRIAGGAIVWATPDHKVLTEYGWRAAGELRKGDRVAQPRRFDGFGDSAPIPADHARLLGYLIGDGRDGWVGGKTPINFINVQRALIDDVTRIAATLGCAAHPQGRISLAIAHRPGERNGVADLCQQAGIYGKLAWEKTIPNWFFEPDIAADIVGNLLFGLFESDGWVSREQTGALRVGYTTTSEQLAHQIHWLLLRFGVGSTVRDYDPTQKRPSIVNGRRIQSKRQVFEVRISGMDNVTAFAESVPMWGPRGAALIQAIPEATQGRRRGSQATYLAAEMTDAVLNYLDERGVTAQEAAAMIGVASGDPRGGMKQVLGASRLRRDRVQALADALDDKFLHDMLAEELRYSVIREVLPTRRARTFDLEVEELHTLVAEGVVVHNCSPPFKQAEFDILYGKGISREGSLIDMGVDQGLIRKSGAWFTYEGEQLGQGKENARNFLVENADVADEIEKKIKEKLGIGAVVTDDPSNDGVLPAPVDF

[18] = biological target: T5, Heat shock factor protein 1 (Mus musculus, UniProt P38532); assay: enhancement of HSF1-driven luciferase signal – cell-based, NIH3T3, luminescence, dose retest, confirmation (AID 435004); assay type: functional;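 also: stress induced by proteasome inhibitor MG132 added 30 min after compound; luciferase reporter driven by HSF1 response element in NIH3T3 cells; actives raise luminescence as potentiators of the MG132 stress response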
T5 sequence (P38532 whole entry): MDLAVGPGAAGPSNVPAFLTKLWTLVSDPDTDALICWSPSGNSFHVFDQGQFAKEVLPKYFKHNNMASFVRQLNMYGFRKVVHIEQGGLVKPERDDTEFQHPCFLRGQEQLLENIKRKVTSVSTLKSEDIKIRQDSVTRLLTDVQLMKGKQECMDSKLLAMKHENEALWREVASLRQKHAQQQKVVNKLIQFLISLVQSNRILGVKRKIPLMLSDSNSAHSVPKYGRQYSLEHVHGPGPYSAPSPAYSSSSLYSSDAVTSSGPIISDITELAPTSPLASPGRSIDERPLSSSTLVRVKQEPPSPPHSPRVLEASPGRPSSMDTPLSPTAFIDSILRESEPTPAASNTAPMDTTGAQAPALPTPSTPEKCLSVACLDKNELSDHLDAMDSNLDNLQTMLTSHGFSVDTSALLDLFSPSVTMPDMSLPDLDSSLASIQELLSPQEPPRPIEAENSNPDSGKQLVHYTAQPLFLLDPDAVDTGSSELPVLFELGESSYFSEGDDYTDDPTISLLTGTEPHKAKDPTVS

Sequence of Cytochrome P450 2C9 (P11712 whole entry): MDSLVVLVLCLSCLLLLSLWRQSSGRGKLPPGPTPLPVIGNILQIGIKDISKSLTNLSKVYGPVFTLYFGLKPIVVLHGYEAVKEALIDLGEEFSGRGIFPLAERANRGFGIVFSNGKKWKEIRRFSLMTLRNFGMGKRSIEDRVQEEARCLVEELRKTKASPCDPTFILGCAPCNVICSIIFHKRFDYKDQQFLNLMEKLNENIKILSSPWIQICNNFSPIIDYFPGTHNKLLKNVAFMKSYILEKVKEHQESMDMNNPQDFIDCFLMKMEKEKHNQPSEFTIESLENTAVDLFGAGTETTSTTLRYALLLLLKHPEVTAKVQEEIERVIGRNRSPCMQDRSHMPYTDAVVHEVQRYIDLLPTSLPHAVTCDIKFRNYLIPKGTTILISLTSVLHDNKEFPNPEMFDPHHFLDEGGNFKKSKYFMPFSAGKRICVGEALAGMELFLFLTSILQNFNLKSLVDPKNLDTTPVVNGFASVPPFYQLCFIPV

SMILES: Cc1[nH]c2ccccc2c1C(=O)C(=O)NCCc1ccc(S(N)(=O)=O)cc1
- IC50 [1]: 83.3 µM (inactive)
- IC50 [2]: 6.63 µM (active)
- IC50 [3]: 14.8 µM (inactive)

SMILES: Cc1ccc(/C=N/NC(=O)c2ccoc2C)s1
- EC50 [4]: > 67.6 µM (inactive)

SMILES: CC(=O)NC1=C(c2ccc(Oc3ccccc3)cc2)C(=O)c2ccccc2C1=O
- AC50 [5]: 31.2 µM (active)
- AC50 [6]: 59 µM (active)

SMILES: Clc1ccccc1-c1ccc2ncnc(NCc3cccnc3)c2c1
- AC50 [7]: 0.794 µM (inconclusive)
- IC50 [1]: 83.3 µM (inactive)
- IC50 [2]: 17.1 µM (inactive)
- IC50 [3]: 14.1 µM (inactive)

SMILES: CC1(C)Cc2ccccc2-c2nc(S)nc(O)c21
- IC50 [8]: > 138 µM (inactive)

SMILES: CCn1c(-c2ccc(C)cc2)nn(CC(=O)NCCc2ccccc2)c1=S
- AC50 [9]: 8.88 µM (active)
- AC50 [10]: 5.9 µM (active)
- AC50 [11]: 51.1 µM (active)
- AC50 [12]: 7.04 µM (active)
- AC50 [13]: 6.95 µM (active)
- AC50 [14]: 4.85 µM (active)

SMILES: CC1(C)Cc2ccccc2-c2[nH]c(=S)[nH]c(=O)c21
- IC50 [15]: 4.55 µM (active)

SMILES: OCCN=C(S)Nc1ccc2nsnc2c1
- AC50 [16]: 10.5 µM (active)
- EC50 [17]: 26 µM (active)

SMILES: Cc1ccc2oc(-c3cccc(N)c3)nc2c1
- EC50 [4]: > 67.6 µM (inactive)
- EC50 [18]: > 260 µM (inconclusive)

SMILES: CCOC(=O)CSc1nc(COc2ccccc2)nc2ccccc12
- IC50 [8]: > 138 µM (inactive)
- IC50 [15]: 8.25 µM (active)

SMILES: CC(=O)c1ccc(NC(=O)c2ccc(-n3cncn3)c([N+](=O)[O-])c2)cc1
- IC50 [1]: 83.3 µM (inactive)
- IC50 [2]: 4.12 µM (active)
- IC50 [3]: 7.16 µM (active)

SMILES: CCN(CC)CCCNC1=C(N(C)C(C)=O)C(=O)c2ccccc2C1=O
- AC50 [5]: 2.91 µM (active)
- AC50 [6]: 5.33 µM (active)

SMILES: CCOC(=O)CSc1nc(-c2ccccc2)nc2ccccc12
- IC50 [8]: > 138 µM (inactive)
- IC50 [15]: 1.73 µM (active)

SMILES: CCNS(=O)(=O)c1ccc(CCC(=O)Nc2cc(Cl)ccc2Oc2ccccc2)cc1
- AC50 [9]: 5.54 µM (active)
- AC50 [11]: 40.5 µM (active)
- AC50 [12]: 12 µM (active)
- AC50 [13]: 11.6 µM (active)
- AC50 [14]: 2.17 µM (active)
